Experimental data: ChEMBL document CHEMBL1201862, “PubChem BioAssay data set” (2004)
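96-well plates; 48 h exposure; 5 concentrations. Endpoints by linear interpolation between flanking doses. Not reached: highest tested concentration assigned. GI50 = concentration required for 50% inhibition of growth.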 Active and inactive are the calls of the source. No stated cut-off is given here; in the data, active = GI50 up to about 1.1 µM and inactive = higher.

Columns and labels:
Experiment in all cases: NCI-60 cell line screen, 48 h
ACHN = test system: ACHN
OVCAR-3 = test system: OVCAR-3
NCI-H226 = test system: NCI-H226
M19-MEL = test system: M19-MEL
K562 = test system: K562
A498 = test system: A498
SF-295 = test system: SF-295
LXFL 529 = test system: LXFL 529
MOLT-4 = test system: MOLT-4
Malme-3M = test system: Malme-3M
A549 = test system: A549
SK-MEL-28 = test system: SK-MEL-28
NCI-H460 = test system: NCI-H460
HOP-92 = test system: HOP-92
SNB-78 = test system: SNB-78
OVCAR-5 = test system: OVCAR-5
SN12C = test system: SN12C
SK-OV-3 = test system: SK-OV-3
TK-10 = test system: TK-10
UACC-62 = test system: UACC-62
M14 = test system: M14
NCI-H23 = test system: NCI-H23
COLO 205 = test system: COLO 205
IGROV-1 = test system: IGROV-1
RPMI-8226 = test system: RPMI-8226
DLD-1 = test system: DLD-1
HOP-62 = test system: HOP-62
RXF 393 = test system: RXF 393
HCT-15 = test system: HCT-15
KM12 = test system: KM12
EKVX = test system: EKVX
HCC 2998 = test system: HCC 2998
CCRF-CEM = test system: CCRF-CEM
SF-268 = test system: SF-268
SW-620 = test system: SW-620
SNB-75 = test system: SNB-75
HT-29 = test system: HT-29
SK-MEL-5 = test system: SK-MEL-5
HCT-116 = test system: HCT-116
UO-31 = test system: UO-31
LOX IMVI = test system: LOX IMVI
UACC-257 = test system: UACC-257
SF-539 = test system: SF-539
KM-20L2 = test system: KM-20L2
SNB-19 = test system: SNB-19
U-251 = test system: U-251
786-0 = test system: 786-0
CAKI-1 = test system: CAKI-1
SK-MEL-2 = test system: SK-MEL-2
OVCAR-8 = test system: OVCAR-8
DMS-114 = test system: DMS-114
MDA-MB-231 = test system: MDA-MB-231
HOP-18 = test system: HOP-18
OVCAR-4 = test system: OVCAR-4
DU-145 = test system: DU-145
MDA-N = test system: MDA-N
HL-60 = test system: HL-60
NCI-H522 = test system: NCI-H522
T47D = test system: T47D
DMS-273 = test system: DMS-273
MCF7 = test system: MCF7
MDA-MB-435 = test system: MDA-MB-435
PC-3 = test system: PC-3
BT-549 = test system: BT-549
SR = test system: SR

How did the GI50 (ACHN) turn out when `C/C(=N\NC(=O)C[n+]1ccccc1)c1sc(-c2nc(C)c(/C(C)=N/NC(=O)C[n+]3ccccc3)s2)nc1C` was run?
The GI50 was > 100 µM (inactive).

And the GI50 (OVCAR-3)?
The GI50 was > 100 µM (inactive).

And the GI50 (NCI-H226)?
Its GI50 is > 100 µM (inactive).

And the GI50 (M19-MEL)?
Its GI50 is > 100 µM (inactive).

What about the GI50 (K562) of the same molecule?
The GI50 was 41.1 µM (inactive).

And the GI50 (A498)?
Its GI50 is > 100 µM (inactive).

What about the GI50 (SF-295) of the same molecule?
Its GI50 is > 100 µM (inactive).

And the GI50 (LXFL 529)?
The GI50 was 95.9 µM (inactive).

And the GI50 (MOLT-4)?
Its GI50 is 95.9 µM (inactive).

And the GI50 (Malme-3M)?
Its GI50 is > 100 µM (inactive).

What about the GI50 (A549) of the same molecule?
Its GI50 is > 100 µM (inactive).

What about the GI50 (SK-MEL-28) of the same molecule?
Its GI50 is > 100 µM (inactive).

And the GI50 (NCI-H460)?
Its GI50 is > 100 µM (inactive).

What about the GI50 (HOP-92) of the same molecule?
The GI50 was > 100 µM (inactive).

And the GI50 (SNB-78)?
The GI50 was > 100 µM (inactive).

What about the GI50 (OVCAR-5) of the same molecule?
The GI50 was > 100 µM (inactive).

What about the GI50 (SN12C) of the same molecule?
The GI50 was > 100 µM (inactive).

What about the GI50 (SK-OV-3) of the same molecule?
Its GI50 is > 100 µM (inactive).

And the GI50 (TK-10)?
The GI50 was > 100 µM (inactive).

What about the GI50 (UACC-62) of the same molecule?
The GI50 was 65 µM (inactive).

And the GI50 (M14)?
Its GI50 is > 100 µM (inactive).

What about the GI50 (NCI-H23) of the same molecule?
Its GI50 is > 100 µM (inactive).

What about the GI50 (COLO 205) of the same molecule?
Its GI50 is > 100 µM (inactive).

What about the GI50 (IGROV-1) of the same molecule?
Its GI50 is > 100 µM (inactive).

And the GI50 (RPMI-8226)?
Its GI50 is 43.9 µM (inactive).

What about the GI50 (DLD-1) of the same molecule?
Its GI50 is > 100 µM (inactive).

What about the GI50 (HOP-62) of the same molecule?
Its GI50 is > 100 µM (inactive).

What about the GI50 (RXF 393) of the same molecule?
Its GI50 is > 100 µM (inactive).

And the GI50 (HCT-15)?
Its GI50 is 37.7 µM.

And the GI50 (KM12)?
Its GI50 is > 100 µM (inactive).

And the GI50 (EKVX)?
Its GI50 is > 100 µM (inactive).

What about the GI50 (HCC 2998) of the same molecule?
The GI50 was > 100 µM (inactive).

And the GI50 (CCRF-CEM)?
Its GI50 is > 10 µM (inactive).

What about the GI50 (SF-268) of the same molecule?
Its GI50 is > 100 µM (inactive).

What about the GI50 (SW-620) of the same molecule?
The GI50 was > 100 µM (inactive).

What about the GI50 (SNB-75) of the same molecule?
Its GI50 is > 100 µM (inactive).

What about the GI50 (HT-29) of the same molecule?
The GI50 was 36.3 µM (inactive).

What about the GI50 (SK-MEL-5) of the same molecule?
The GI50 was > 100 µM (inactive).

What about the GI50 (HCT-116) of the same molecule?
Its GI50 is 68.5 µM (inactive).

And the GI50 (UO-31)?
Its GI50 is > 100 µM (inactive).

What about the GI50 (LOX IMVI) of the same molecule?
The GI50 was > 100 µM (inactive).

What about the GI50 (UACC-257) of the same molecule?
Its GI50 is > 100 µM (inactive).

And the GI50 (SF-539)?
Its GI50 is > 100 µM (inactive).

What about the GI50 (KM-20L2) of the same molecule?
The GI50 was > 100 µM (inactive).

And the GI50 (SNB-19)?
Its GI50 is > 100 µM (inactive).

And the GI50 (U-251)?
Its GI50 is > 100 µM (inactive).

What about the GI50 (786-0) of the same molecule?
The GI50 was > 100 µM (inactive).

What about the GI50 (CAKI-1) of the same molecule?
Its GI50 is > 100 µM (inactive).

What about the GI50 (SK-MEL-2) of the same molecule?
The GI50 was > 100 µM (inactive).

And the GI50 (OVCAR-8)?
The GI50 was > 100 µM (inactive).

What about the GI50 (DMS-114) of the same molecule?
The GI50 was 38.3 µM (inactive).

`C=C1C(=O)O[C@@H]2C[C@@H](C)[C@@H]3C=CC(=O)[C@@]3(C)[C@@H](O)[C@H]12` [HELENALIN] was tested. Which GI50 (ACHN) did it give?
Its GI50 is 1.66 µM (inactive).

And the GI50 (OVCAR-3)?
Its GI50 is 1.52 µM (inactive).

What about the GI50 (NCI-H226) of the same molecule?
The GI50 was 1.63 µM (inactive).

And the GI50 (M19-MEL)?
The GI50 was 2.82 µM (inactive).

What about the GI50 (K562) of the same molecule?
The GI50 was 0.622 µM (active).

What about the GI50 (A498) of the same molecule?
The GI50 was 1.86 µM (inactive).

What about the GI50 (MDA-MB-231) of the same molecule?
Its GI50 is 3.95 µM (inactive).

And the GI50 (SF-295)?
Its GI50 is 2.77 µM (inactive).

What about the GI50 (LXFL 529) of the same molecule?
Its GI50 is 0.493 µM (active).

What about the GI50 (HOP-18) of the same molecule?
Its GI50 is 2.02 µM (inactive).

And the GI50 (MOLT-4)?
Its GI50 is 0.851 µM (active).

And the GI50 (Malme-3M)?
The GI50 was 1.69 µM (inactive).

What about the GI50 (A549) of the same molecule?
Its GI50 is 2.9 µM (inactive).

And the GI50 (OVCAR-4)?
Its GI50 is 2.77 µM (inactive).

What about the GI50 (SK-MEL-28) of the same molecule?
Its GI50 is 1.76 µM (inactive).

And the GI50 (NCI-H460)?
Its GI50 is 1.73 µM (inactive).

What about the GI50 (DU-145) of the same molecule?
Its GI50 is 3.79 µM (inactive).

And the GI50 (OVCAR-5)?
Its GI50 is 1.71 µM (inactive).

What about the GI50 (SN12C) of the same molecule?
The GI50 was 1.36 µM (inactive).

And the GI50 (TK-10)?
Its GI50 is 4.05 µM (inactive).

And the GI50 (UACC-62)?
Its GI50 is 1.39 µM (inactive).

And the GI50 (M14)?
The GI50 was 1.98 µM (inactive).

And the GI50 (NCI-H23)?
The GI50 was 1.66 µM (inactive).

And the GI50 (COLO 205)?
The GI50 was 1.56 µM (inactive).

And the GI50 (IGROV-1)?
The GI50 was 2.2 µM (inactive).

And the GI50 (RPMI-8226)?
Its GI50 is 0.532 µM (active).

What about the GI50 (DLD-1) of the same molecule?
The GI50 was 0.557 µM (active).

And the GI50 (HOP-62)?
The GI50 was 5.89 µM (inactive).

And the GI50 (MDA-N)?
The GI50 was 2.08 µM (inactive).

What about the GI50 (HL-60) of the same molecule?
The GI50 was 525 nM (active).

And the GI50 (RXF 393)?
Its GI50 is 0.466 µM (active).

And the GI50 (HCT-15)?
Its GI50 is 2.33 µM.

What about the GI50 (NCI-H522) of the same molecule?
The GI50 was 242 nM (active).

What about the GI50 (KM12) of the same molecule?
The GI50 was 1.53 µM (inactive).

And the GI50 (EKVX)?
Its GI50 is 3.13 µM (inactive).

And the GI50 (HCC 2998)?
Its GI50 is 1.51 µM (inactive).

What about the GI50 (CCRF-CEM) of the same molecule?
The GI50 was 0.313 µM (active).

What about the GI50 (SF-268) of the same molecule?
The GI50 was 3.5 µM (inactive).

What about the GI50 (SW-620) of the same molecule?
The GI50 was 0.719 µM (active).

And the GI50 (SNB-75)?
Its GI50 is 0.0352 µM (active).

What about the GI50 (T47D) of the same molecule?
Its GI50 is 2.95 µM (inactive).

And the GI50 (HT-29)?
Its GI50 is 1.71 µM (inactive).

And the GI50 (SK-MEL-5)?
Its GI50 is 1.3 µM (inactive).

What about the GI50 (HCT-116) of the same molecule?
Its GI50 is 0.51 µM (active).

What about the GI50 (UO-31) of the same molecule?
The GI50 was 1.68 µM (inactive).

And the GI50 (LOX IMVI)?
Its GI50 is 0.574 µM (active).

And the GI50 (DMS-273)?
The GI50 was 1.53 µM (inactive).

And the GI50 (UACC-257)?
Its GI50 is 1.59 µM (inactive).

What about the GI50 (SF-539) of the same molecule?
The GI50 was 1.99 µM (inactive).

What about the GI50 (MCF7) of the same molecule?
Its GI50 is 780 nM (active).

And the GI50 (MDA-MB-435)?
The GI50 was 1.58 µM (inactive).

And the GI50 (PC-3)?
Its GI50 is 1.92 µM (inactive).

What about the GI50 (KM-20L2) of the same molecule?
Its GI50 is 1.73 µM (inactive).

What about the GI50 (SNB-19) of the same molecule?
The GI50 was 2.58 µM (inactive).

What about the GI50 (U-251) of the same molecule?
The GI50 was 0.769 µM (active).

What about the GI50 (786-0) of the same molecule?
Its GI50 is 1.25 µM (inactive).

What about the GI50 (CAKI-1) of the same molecule?
Its GI50 is 0.377 µM (active).

And the GI50 (BT-549)?
The GI50 was 1.04 µM (active).

What about the GI50 (SK-MEL-2) of the same molecule?
The GI50 was 1.86 µM (inactive).

What about the GI50 (SR) of the same molecule?
Its GI50 is 594 nM (active).

What about the GI50 (OVCAR-8) of the same molecule?
The GI50 was 1.48 µM (inactive).

What about the GI50 (DMS-114) of the same molecule?
Its GI50 is 1.45 µM (inactive).
